From US8927506B2, “Acetates of 2-deoxy monosaccharides with anticancer activity” (Board of Regents, The University of Texas System, priority 2008, dated 2015)

Tests used:
[1] = system: pancreatic Colo357-FG cell line; test: In vitro activity in pancreatic Colo357-FG cell line; type: cell-based; details: COLO 357/FG; Colo357FG pancreatic cell line; concentration reducing cell viability to half
Description: As used herein, reference to “IC50” is intended to refer to the concentration of a compound or composition that reduces the viability of cells to half the original level. In broader terms, IC50 can refer to half the maximal inhibitory concentration of a substance for inhibiting various biological processes.
In vitro activity in pancreatic Colo357-FG cell line is provided below in Table 1.

[2] = Preliminary biodistribution / pharmacokinetic study by oral gavage, 2-DG content in plasma and brain by LC/MS/MS; type: in vivo; details: CD-1 mice
Description: Analytical methodologies (LC/MS/MS) were developed that are capable of quantifying these acetate sugars and the resulting liberation of 2-DG in various biomatrices (plasma and brain tissue). Using this analytical method preliminary biodistribution studies were undertaken in CD-1 mice to examine the pharmacokinetics of these novel agents.
Briefly, four animals per treatment group were given equivalent doses of either 2-DG, the compound of Example 6 (6-O-acetate of 2-DG) or the compound of Example 4 (4,6-di-O-acetate of 2-DG) by oral gavage using the same vehicle. Individual groups of animals were then sacrificed at 0.25, 0.5, 1, 2 and 4 hours following dose administration. From each animal plasma and brain tissues were harvested and then analyzed for 2-DG content by LC/mass spectrometry.

IC50 [1] [mM]	highest attained brain tissue concentration of 2-DG ([2]; at 2 hrs after administration) [μg/gm]	duration of active concentrations of 2-DG at the site of action (brain) relative to 2-DG alone ([2]; brain)	Compound
11.9			CC(=O)OC1CC(O)C(O)C(CO)O1 [Example 1, 1-O-Acetyl-2-deoxy-D-glucose]
9.7	12		OCC1OC(O)CC(O)C1O (stereo not shown) [Example 2-DG, 2-deoxy-glucose, reference compound]
17.2			CC(=O)OCC1OC(OC(C)=O)CC(O)C1O (stereo not shown) [Example 3]
1.7			CC(=O)OCC1OC(O)CC(O)C1OC(C)=O [Example 4, 4,6-Di-O-acetyl-2-deoxy-D-glucose]
1.6			CC(=O)OCC1OC(O)CC(OC(C)=O)C1O (stereo not shown) [Example 5]
		more than twice as long	CC(=O)OCC1OC(O)CC(O)C1O [Example 6, 6-O-acetyl-2-deoxy-D-glucose]
